From patent US20070219161A1, “Preparation Process Of Oligoglycosaminoglycan, And Reducing End Glucuronic Acid Type Oligochondroitin Sulfate And Pharmaceutical Composition Comprising The Same” (priority 2004, published 2007)

Molecular target: T1, CD44 (Homo sapiens, UniProt P16070)
T1 construct: endogenous in cells
Assay: CD44 shedding induction by synthetic oligosaccharide in a cancer cell
Assay type: cell-based
Conditions: electrophoresis (FIG. 9) and CD44 shedding index with the state without stimulation set to 1 (FIG. 10)
Protocol: FIG. 8 is a flowchart showing the outline of the test method performed in Example 4.
FIG. 9 is a copy of the electrophoresis photograph in which the electrophoresis result of the test performed in Example 4 is shown.
About the compound of the formula (20) and (21) obtained in Example 1, a CD44 shedding induction ability in a cancer cell was evaluated according to the test method shown in FIG. 8.

T1 sequence (P16070 21-742, species assumed): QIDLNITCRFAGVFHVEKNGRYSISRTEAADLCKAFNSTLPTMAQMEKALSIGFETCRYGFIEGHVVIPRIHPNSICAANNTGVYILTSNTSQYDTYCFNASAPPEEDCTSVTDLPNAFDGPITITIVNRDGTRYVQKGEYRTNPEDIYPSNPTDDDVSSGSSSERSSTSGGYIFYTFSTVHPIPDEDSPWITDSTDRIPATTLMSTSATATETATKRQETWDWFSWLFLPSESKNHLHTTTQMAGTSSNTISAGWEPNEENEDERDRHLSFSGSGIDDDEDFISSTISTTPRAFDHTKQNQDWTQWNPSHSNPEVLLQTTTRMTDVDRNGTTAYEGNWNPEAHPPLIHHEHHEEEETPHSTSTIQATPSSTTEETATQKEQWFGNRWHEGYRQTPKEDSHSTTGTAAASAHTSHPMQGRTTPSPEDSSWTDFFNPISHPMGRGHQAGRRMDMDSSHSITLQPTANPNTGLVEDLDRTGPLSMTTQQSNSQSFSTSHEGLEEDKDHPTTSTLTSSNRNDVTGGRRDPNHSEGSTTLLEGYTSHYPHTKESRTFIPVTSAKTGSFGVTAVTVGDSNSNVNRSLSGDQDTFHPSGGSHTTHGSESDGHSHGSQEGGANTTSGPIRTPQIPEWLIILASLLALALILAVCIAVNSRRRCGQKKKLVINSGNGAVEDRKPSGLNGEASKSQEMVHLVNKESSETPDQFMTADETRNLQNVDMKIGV

Row | Substance | CD44 shedding induction ability
1 | β-D-GalNAc(4,6-di-OSO3Na)-(1->[4]-β-D-GlcA-(1->3)-β-D-GalNAc(4,6-di-OSO3Na)-(1->24)-β-D-GlcA-(1->OMP [compound of the formula (21)] | induced more strongly
2 | β-D-GalNAc-(1->[4]-β-D-GlcA-(1->3)-β-D-GalNAc-(1->)24)-β-D-GlcA-(1->OMP [compound of the formula (20)] | induced the shedding of a CD44
